Experimental data: patent US20250101028A1, “HETEROCYCLIC COMPOUNDS, COMPOSITIONS THEREOF, AND METHODS OF TREATMENT THEREWITH” (BeiGene, Ltd., priority 2022, published 2025)

Columns and labels:
[1] = biological target: T1, GST-tagged GDP-loaded KRAS G12V (amino acids 1-169) (Homo sapiens, UniProt P01116, G12V); assay: KRAS G12V probe displacement assay (TR-FRET); assay type: binding; details: displacement of biotinylated probe 2 from GDP-loaded KRAS G12V
T1 construct: GST-tagged GDP-loaded KRAS G12V (amino acids 1-169); made in house; host or cells: E. coli
T1 sequence (P01116 1-169 isoform P01116-2 G12V): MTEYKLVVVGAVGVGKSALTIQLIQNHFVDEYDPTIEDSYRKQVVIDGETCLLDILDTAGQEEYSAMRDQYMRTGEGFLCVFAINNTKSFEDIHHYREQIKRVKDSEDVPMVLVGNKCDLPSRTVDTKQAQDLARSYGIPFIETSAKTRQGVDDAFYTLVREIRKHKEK
Method in brief: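 Probe displacement read as TR-FRET (665/620 nm) with anti-GST-Tb and streptavidin-XL665, IC50 from four-parameter logistic fit. Compound preincubated 1 h, 24 °C, with E. coli-expressed KRAS 1-169: WT at 3 nM with 60 nM probe 1, G12V at 2 nM with 2.5 nM probe 2, pH 7.5.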

[2] = tested on: pERK1/2(THR202/TYR204) level, SW620 cell line; assay: KRAS G12V pERK assay (HTRF); assay type: cell-based; details: Homo sapiens, SW-620; SW620 cells, 2 hrs compound treatment
Method: SW620 cell line was used in this study. Cells were maintained in RPMI 1640 supplemented with 10% fetal bovine serum (Thermo Fisher), 50 units/mL penicillin and streptomycin (Thermo Fisher) and kept at 37° C. in a humidified atmosphere of 5% CO2 in air. Cells were reinstated from frozen stocks that were laid down within 30 passages from the original cells purchased. 40000 cells per well were seeded into a 96-well plate and incubated overnight. Cells were treated with a 10-point dilution series. The final compound concentration is from […]. After 2 hrs compound treatment, cells were lysed, and the pERK1/2(THR202/TYR204) level in the cell lysates was detected by HTRF kit (Cisbio). In brief, a total of 16 μL of cell lysate from each well of a 96-well plate was transferred to a 384-well white assay plate. Lysate from each well was incubated with 2 μL of Eu3+− cryptate (donor) labeled anti-phospho-ERK1/2 and 2 μL of D2 (acceptor) labeled anti-phospho-ERK1/2 antibodies (Cisbio) overnight in dark at room temperature. When donor and acceptor are in close proximity, excitation of the donor with laser triggers a Fluorescence Resonance Energy Transfer (FRET) towards the acceptor, which in turn fluoresces at 655 nm wavelength. FRET signals were measured using a PHERAstar FSX reader (BMG Labtech). IC50 determination was performed by fitting the curve of percent inhibition versus the log of the inhibitor concentration using Dotmatics.

Compound | IC50 [1] [nM] | IC50 [2] [nM]
Nc1nc2c(-c3c(C(F)(F)F)cc4c(N[C@H]5[C@@H]6COC[C@@H]65)nc(OC[C@@]56CCCN5C[C@H](F)C6)nc4c3F)ccc(F)c2s1 [Example 7, 4-(4-(((1R,5S,6r)-3-oxabicyclo [3.1.0]hexan-6-yl)amino)-8-fluoro-2-(((2R,7aS)-2-fluorotetrahydro-1H-pyrrolizin-7a(5H)-yl)methoxy)-6-(trifluoromethyl)quinazolin-7-yl)-7-fluorobenzo[d]thiazol-2-amine] | 4.2 | 220
Nc1nc2c(-c3c(C(F)(F)F)cc4c(N5CCC5)nc(OC[C@@]56CCCN5C[C@H](F)C6)nc4c3F)ccc(F)c2s1 [Example 33, 4-(4-(azetidin-1-yl)-8-fluoro-2-(((2R,7aS)-2-fluorotetrahydro-1H-pyrrolizin-7a(5H)-yl)methoxy)-6-(trifluoromethyl)quinazolin-7-yl)-7-fluorobenzo[d]thiazol-2-amine] | 2.6 | 333
Nc1nc2c(-c3c(C(F)(F)F)cc4c(N5CC(F)C5)nc(OC[C@@]56CCCN5C[C@H](F)C6)nc4c3F)ccc(F)c2s1 [Example 37, 7-fluoro-4-(8-fluoro-4-(3-fluoroazetidin-1-yl)-2-(((2R,7aS)-2-fluorotetrahydro-1H-pyrrolizin-7a(5H)-yl)methoxy)-6-(trifluoromethyl)quinazolin-7-yl)benzo[d]thiazol-2-amine] | 6 | 449
N#CC1CN(c2nc(OC[C@@]34CCCN3C[C@H](F)C4)nc3c(F)c(-c4ccc(F)c5sc(N)nc45)c(C(F)(F)F)cc23)C1 [Example 39, 1-(7-(2-amino-7-fluorobenzo[d]thiazol-4-yl)-8-fluoro-2-(((2R,7aS)-2-fluorotetrahydro-1H-pyrrolizin-7a(5H)-yl)methoxy)-6-(trifluoromethyl)quinazolin-4-yl)azetidine-3-carbonitrile] | 5.5 | 410
CC[C@H]1COCCN1c1nc(OC[C@@]23CCCN2C[C@H](F)C3)nc2c(F)c(-c3cc(N)cc(Cl)c3C(F)(F)F)ncc12 [Example 116, 3-chloro-5-(4-((S)-3-ethylmorpholino)-8-fluoro-2-(((2R,7aS)-2-fluorotetrahydro-1H-pyrrolizin-7a(5H)-yl)methoxy)pyrido[4,3-d]pyrimidin-7-yl)-4-(trifluoromethyl)aniline] | 4.4 | –
CC[C@@H]1COCCN1c1nc(OC[C@@]23CCCN2C[C@H](F)C3)nc2c(F)c(-c3cc(N)cc(Cl)c3C(F)(F)F)ncc12 [Example 117, 3-chloro-5-(4-((R)-3-ethylmorpholino)-8-fluoro-2-(((2R,7aS)-2-fluorotetrahydro-1H-pyrrolizin-7a(5H)-yl)methoxy)pyrido[4,3-d]pyrimidin-7-yl)-4-(trifluoromethyl)aniline] | 12 | –
C[C@H]1COC[C@H](C)N1c1nc(OC[C@@]23CCCN2C[C@H](F)C3)nc2c(F)c(-c3cc(N)cc(Cl)c3C(F)(F)F)ncc12 [Example 118, 3-chloro-5-(4-((3S,5S)-3,5-dimethylmorpholino)-8-fluoro-2-(((2R,7aS)-2-fluorotetrahydro-1H-pyrrolizin-7a(5H)-yl)methoxy)pyrido[4,3-d]pyrimidin-7-yl)-4-(trifluoromethyl)aniline] | 23 | –
CC1CN(c2nc(OC[C@@]34CCCN3C[C@H](F)C4)nc3c(F)c(-c4cc(N)cc(Cl)c4C(F)(F)F)ncc23)CCO1 (stereo partly drawn) [Example 119, 3-chloro-5-(8-fluoro-2-(((2R,7aS)-2-fluorotetrahydro-1H-pyrrolizin-7a(5H)-yl)methoxy)-4-(2-methylmorpholino)pyrido[4,3-d]pyrimidin-7-yl)-4-(trifluoromethyl)aniline] | 24 | –
Nc1cc(Cl)c(C(F)(F)F)c(-c2ncc3c(N4CCO[C@H](CO)C4)nc(OC[C@@]45CCCN4C[C@H](F)C5)nc3c2F)c1 [Example 120, ((2S)-4-(7-(5-amino-3-chloro-2-(trifluoromethyl)phenyl)-8-fluoro-2-((2-fluorotetrahydro-1H-pyrrolizin-7a(5H)-yl)methoxy)pyrido[4,3-d]pyrimidin-4-yl)morpholin-2-yl)methanol] | 6.6 | –
N#CC1CCN(c2nc(OC[C@@]34CCCN3C[C@H](F)C4)nc3c(F)c(-c4cc(N)cc(Cl)c4C(F)(F)F)ncc23)CC1 [Example 121, 1-(7-(5-amino-3-chloro-2-(trifluoromethyl)phenyl)-8-fluoro-2-(((2R,7aS)-2-fluorotetrahydro-1H-pyrrolizin-7a(5H)-yl)methoxy)pyrido[4,3-d]pyrimidin-4-yl)piperidine-4-carbonitrile] | 13 | –
N#CC1CCN(c2nc(OC[C@@]34CCCN3C[C@H](F)C4)nc3c(F)c(-c4cc(N)cc(Cl)c4C(F)(F)F)ncc23)CC1F (stereo partly drawn) [Example 122, 1-(7-(5-amino-3-chloro-2-(trifluoromethyl)phenyl)-8-fluoro-2-(((2R,7aS)-2-fluorotetrahydro-1H-pyrrolizin-7a(5H)-yl)methoxy)pyrido[4,3-d]pyrimidin-4-yl)-3-fluoropiperidine-4-carbonitrile] | 28 | –
CC1CN(c2nc(OC[C@@]34CCCN3C[C@H](F)C4)nc3c(F)c(-c4cc(N)cc(Cl)c4C(F)(F)F)ncc23)CCC1C#N (stereo partly drawn) [Example 123, 1-(7-(5-amino-3-chloro-2-(trifluoromethyl)phenyl)-8-fluoro-2-(((2R,7aS)-2-fluorotetrahydro-1H-pyrrolizin-7a(5H)-yl)methoxy)pyrido[4,3-d]pyrimidin-4-yl)-3-methylpiperidine-4-carbonitrile] | 22 | –
CC1CC(C#N)CCN1c1nc(OC[C@@]23CCCN2C[C@H](F)C3)nc2c(F)c(-c3cc(N)cc(Cl)c3C(F)(F)F)ncc12 (stereo partly drawn) [Example 124, 1-(7-(5-amino-3-chloro-2-(trifluoromethyl)phenyl)-8-fluoro-2-(((2R,7aS)-2-fluorotetrahydro-1H-pyrrolizin-7a(5H)-yl)methoxy)pyrido[4,3-d]pyrimidin-4-yl)-2-methylpiperidine-4-carbonitrile] | 15 | –
N#CCC1CCN(c2nc(OC[C@@]34CCCN3C[C@H](F)C4)nc3c(F)c(-c4cc(N)cc(Cl)c4C(F)(F)F)ncc23)CC1 [Example 125, 2-(1-(7-(5-amino-3-chloro-2-(trifluoromethyl)phenyl)-8-fluoro-2-(((2R,7aS)-2-fluorotetrahydro-1H-pyrrolizin-7a(5H)-yl)methoxy)pyrido[4,3-d]pyrimidin-4-yl)piperidin-4-yl)acetonitrile] | 81 | –
N#CCC1CCCN(c2nc(OC[C@@]34CCCN3C[C@H](F)C4)nc3c(F)c(-c4cc(N)cc(Cl)c4C(F)(F)F)ncc23)C1 (stereo partly drawn) [Example 126, 2-(1-(7-(5-amino-3-chloro-2-(trifluoromethyl)phenyl)-8-fluoro-2-(((2R,7aS)-2-fluorotetrahydro-1H-pyrrolizin-7a(5H)-yl)methoxy)pyrido[4,3-d]pyrimidin-4-yl)piperidin-3-yl)acetonitrile] | 6.3 | –
Nc1cc(Cl)c(C(F)(F)F)c(-c2ncc3c(N4CCC(O)CC4)nc(OC[C@@]45CCCN4C[C@H](F)C5)nc3c2F)c1 [Example 127, 1-(7-(5-amino-3-chloro-2-(trifluoromethyl)phenyl)-8-fluoro-2-(((2R,7aS)-2-fluorotetrahydro-1H-pyrrolizin-7a(5H)-yl)methoxy)pyrido[4,3-d]pyrimidin-4-yl)piperidin-4-ol] | 21 | –
C[C@]1(O)CCCN(c2nc(OC[C@@]34CCCN3C[C@H](F)C4)nc3c(F)c(-c4cc(N)cc(Cl)c4C(F)(F)F)ncc23)C1 [Example 129, (S)-1-(7-(5-amino-3-chloro-2-(trifluoromethyl)phenyl)-8-fluoro-2-(((2R,7aS)-2-fluorotetrahydro-1H-pyrrolizin-7a(5H)-yl)methoxy)pyrido[4,3-d]pyrimidin-4-yl)-3-methylpiperidin-3-ol] | 15 | –
CCC1(O)CCCN(c2nc(OC[C@@]34CCCN3C[C@H](F)C4)nc3c(F)c(-c4cc(N)cc(Cl)c4C(F)(F)F)ncc23)C1 (stereo partly drawn) [Example 130, 1-(7-(5-amino-3-chloro-2-(trifluoromethyl)phenyl)-8-fluoro-2-(((2R,7aS)-2-fluorotetrahydro-1H-pyrrolizin-7a(5H)-yl)methoxy)pyrido[4,3-d]pyrimidin-4-yl)-3-ethylpiperidin-3-ol] | 32 | –
Nc1cc(Cl)c(C(F)(F)F)c(-c2ncc3c(N4CCC5CC5(O)C4)nc(OC[C@@]45CCCN4C[C@H](F)C5)nc3c2F)c1 (stereo partly drawn) [Example 131, 3-(7-(5-amino-3-chloro-2-(trifluoromethyl)phenyl)-8-fluoro-2-(((2R,7aS)-2-fluorotetrahydro-1H-pyrrolizin-7a(5H)-yl)methoxy)pyrido[4,3-d]pyrimidin-4-yl)-3-azabicyclo[4.1.0]heptan-1-ol] | 23 | –
